Assays:
Type in all cases: in vivo
[1] = system: panicum, fall (fall panicum Panicum dichotomiflorum); assay: Test F pre-/postemergence: panicum, fall
Text: (§1) Seeds of plant species selected from corn (Zea mays), soybean (Glycine max), velvetleaf (Abutilon theophrasti), lambsquarters (Chenopodium album), poinsettia, wild (wild poinsettia, Euphorbia heterophylla), pigweed, palmer (palmer pigweed, Amaranthus palmeri), waterhemp (common waterhemp, Amaranthus rudis), surinam grass (Brachiaria decumbens), crabgrass, Brazil (Brazilian crabgrass, Digitaria horizontalis), panicum, fall (fall panicum Panicum dichotomiflorum), crabgrass, large (large crabgrass, Digitaria sanguinalis), foxtail, giant (giant foxtail, Setaria faberii), foxtail, green (green foxtail Setaria viridis), goosegrass (Eleusine indica), ragweed (common ragweed, Ambrosia elatior), barnyardgrass (Echinochloa crus-galli), sandbur (southern sandbur, Cenchrus echinatus), arrowleaf sida (Sida rhombifolia), ryegrass, Italian (Italian ryegrass, Lolium multiflorum), dayflower, VA (Virginia (VA) dayflower, Commelina virginica), field bindweed (Convolvulus arvensis), cocklebur (common cocklebur, Xanthium strumarium), morningglory (Ipomoea coccinea), nightshade (eastern black nightshade, Solanum ptycanthum), kochia (Kochia scoparia), nutsedge, yellow (yellow nutsedge, Cyperus esculentus), johnsongrass (Sorghum halepense), smartweed (ladysthumb smartweed, Polygonum persicaria), and beggarticks (hairy beggarticks, Bidens pilosa), were planted into a silt loam soil and treated preemergence with test chemicals formulated in a non-phytotoxic solvent mixture which included a surfactant. At the same time, plants selected from these crop and weed species and also pigweed (Amaranthus retroflexus), waterhemp_RES1 (ALS/Triazine resistant common waterhemp, Amaranthus rudis) and waterhemp_RES2 (ALS/HPPD resistant common waterhemp, Amaranthus rudis) were planted in pots containing a planting medium comprising spaghnum peat moss, vermiculite, wetting agent and starter nutrients treated with postemergence applications of some of the test chemicals formulated in the same manner. Plants ranged in height from 2 to 18 cm for postemergence treatments (1- to 4-leaf stage).
(§2) Treated plants and controls were maintained in a greenhouse for 14 to 21 days, after which time all species were compared to controls and visually evaluated. Plant response ratings, summarized in Table E, are based on a scale of 0 to 100 where 0 is no effect and 100 is complete control. A dash (-) response means no test result.

[2] = system: lambsquarters (Chenopodium album); assay: Test F pre-/postemergence: lambsquarters; details: Preemergence
Text: as §1, §2

[3] = system: foxtail, giant (giant foxtail, Setaria faberii); assay: Test F pre-/postemergence: foxtail, giant; details: Preemergence
Text: as §1, §2

[4] = system: ryegrass, Italian (Italian ryegrass, Lolium multiflorum); assay: Test F pre-/postemergence: ryegrass, Italian
Text: as §1, §2

[5] = Preemergence, 16 g ai/ha, scale 0 to 100, 0 no effect, 100 complete control
[6] = Preemergence, 31 g ai/ha, scale 0 to 100, 0 no effect, 100 complete control
[7] = Preemergence, 125 g ai/ha, scale 0 to 100
[8] = Preemergence, 250 g ai/ha, scale 0 to 100
[9] = 16 g ai/ha, scale 0 to 100, 0 no effect, 100 complete control
[10] = 31 g ai/ha, scale 0 to 100, 0 no effect, 100 complete control
[11] = Postemergence, 250 g ai/ha, scale 0 to 100
[12] = Postemergence, 16 g ai/ha, scale 0 to 100
[13] = Postemergence, 31 g ai/ha, scale 0 to 100
[14] = Postemergence, 62 g ai/ha, scale 0 to 100
[15] = Postemergence, 125 g ai/ha, scale 0 to 100

| Compound | Plant response rating, Panicum, Fall [1, 5] | Plant response rating, Panicum, Fall [1, 6] | Plant response rating, Panicum, Fall [1, 7] | Plant response rating, Panicum, Fall [1, 8] | Plant response rating, Lambsquarters [2, 9] | Plant response rating, Lambsquarters [2, 10] | Plant response rating, Lambsquarters ([2]; 62 g ai/ha, scale 0 to 100) | Plant response rating, Lambsquarters ([2]; 125 g ai/ha, scale 0 to 100) | Plant response rating, Lambsquarters ([2]; 250 g ai/ha, scale 0 to 100) | Plant response rating, Foxtail, Giant [3, 9] | Plant response rating, Foxtail, Giant [3, 10] | Plant response rating, Foxtail, Giant ([3]; 62 g ai/ha, scale 0 to 100) | Plant response rating, Foxtail, Giant ([3]; 125 g ai/ha, scale 0 to 100) | Plant response rating, Foxtail, Giant ([3]; 250 g ai/ha, scale 0 to 100) | Plant response rating, Ryegrass, Italian [4, 5] | Plant response rating, Ryegrass, Italian [4, 6] | Plant response rating, Ryegrass, Italian [4, 7] | Plant response rating, Ryegrass, Italian [4, 8] | further results |
| --- | --- | --- | --- | --- | --- | --- | --- | --- | --- | --- | --- | --- | --- | --- | --- | --- | --- | --- | --- |
| Cc1nn(-c2ccc(F)cc2F)nc1Oc1ccnc(C(F)(F)F)c1 [Compound 146] | 0 | 5 | 100 | 100 | 0 | 0 | 40 | 98 | 98 | 20 | 20 | 90 | 98 | 100 | 0 | 10 | 20 | 25 |  |
| CCc1nn(-c2ccc(F)cc2)nc1Cc1ccnc(C(F)(F)F)c1 [Compound 154] | 15 | 90 | 100 | 100 | 0 | 30 | 75 | 98 | 98 | 5 | 65 | 100 | 100 | 100 | 0 | 0 | 70 | 100 |  |
| CCc1nn(-c2ccc(C(F)(F)F)cc2)nc1Oc1ccnc(C(F)(F)F)c1 [Compound 169] | 65 | 100 | 100 | 100 | 0 | 30 | 98 | 98 | 100 | 70 | 100 | 100 | 100 | 100 | 0 | 0 | 100 | 100 | Plant response rating, Panicum, Fall [1, 11]: 30; Plant response rating, Panicum, Fall [1, 12]: 10; Plant response rating, Panicum, Fall [1, 13]: 15; Plant response rating, Panicum, Fall [1, 14]: 20; Plant response rating, Panicum, Fall [1, 15]: 25; Plant response rating, Ryegrass, Italian [4, 11]: 30; Plant response rating, Ryegrass, Italian [4, 12]: 0; Plant response rating, Ryegrass, Italian [4, 13]: 0; Plant response rating, Ryegrass, Italian [4, 14]: 20; Plant response rating, Ryegrass, Italian [4, 15]: 20 |
